Experimental data published in patent US20150174273A1, “IMAGING AND THERAPEUTIC METHODS FOR TREATING PARATHYROID TUMORS” (EMORY UNIVERSITY, priority 2012, published 2015).

Key:
[1] = test system: FRs on freshly excised, non-cultured human PT adenoma cells; assay: 99mTc-EC20 uptake by PT adenoma cell slurry with or without cold folate block; assay type: cell-based; settings: for 99mTc-EC20 uptake, not blocked: absence of cold folate; for 99mTc-EC20 uptake, blocked: pre-incubation with cold folate (200 μM)
Method: Some aliquots of cells were blocked by pre-incubation with cold folate (FA) (yellow bars).

[2] = in vivo; cited from earlier work
[3] = test system: primary human parathyroid cells; assay: 18F FACBC uptake assay; assay type: cell-based; settings: preliminary experiments
Description: BCH is L type transporter inhibitor (2-amino-2-norboranecarboxylic acid), MeAlB is an A type inhibitor (2-[methylamine]isobutric acid), ACS is a multiple amino acid transporter inhibitor (L-alanine, L-cystine, L-serine).
In certain embodiments, the disclosure contemplates methods of ^18F-FACBC Imaging. […] See McConathy et al., Appl Radiat Isot. 2003; 58(6):657-66, hereby incorporated by reference. Parathormone is a peptide hormone, and the bioactive conformation includes a long helical dimer containing leucine residues. […] It is contemplated that parathyroid cells concentrate Anti-^18F-FACBC, and thus Anti-^18F-FACBC can be used as an imaging probe for PET imaging.

Compound	99mTc-EC20 uptake, not blocked ([1]; 20 μl PT adenoma cell slurry) [% dose/20 μl tissue prep]	99mTc-EC20 uptake, blocked ([1]; 20 μl PT adenoma cell slurry) [% dose/20 μl tissue prep]	99mTc-EC20 uptake, not blocked ([1]; 70 μl PT adenoma cell slurry) [% dose/70 μl tissue prep]	99mTc-EC20 uptake, blocked ([1]; 70 μl PT adenoma cell slurry) [% dose/70 μl tissue prep]	pancreatic concentration [2]	renal excretion [2]	uptake of Anti-18F-FACBC by primary human parathyroid cells [3]
[NH-][C@@H](CNC(=O)CC[C@@H](NC(=O)c1ccc(NCc2cnc3nc(N)[nH]c(=O)c3n2)cc1)C(=O)O)C(=O)[N-][C@@H](CC(=O)O)C(=O)[N-][C@@H](C[S-])C(=O)O.[O]=[Tc+4] [99mTc-EC20]	3.4±0.4	1.9±0.2	10.9±0.9	5.7±0.3	–	–	–
NC1(C(=O)O)CC([18F])C1 (stereo not drawn) [Anti-^18F-FACBC, anti-1-amino-^18F-flurocyclobutane-1 carboxylic acid]	–	–	–	–	high pancreatic concentration	low renal excretion	significant specific uptake
